In US9446015B2, “Quinone based nitric oxide donating compounds for ophthalmic use” (NICOX SCIENCE IRELAND, priority 2012, dated 2016):

Tests used:
[1] = tested on: endothelial-dependent vasodilation of rat aortas; assay: Endothelial dysfunction evaluation, vascular response to acetylcholine; assay type: cell-based; conditions: 5-day treatment; 5-ISMN 30 mg/kg, Compound (6) 100 mg/kg
Method: (§1) Thoracic aortas from male New Zealand rabbits or male Sprague Dawley (SD) were used. The aortas were placed immediately in Krebs-HEPES buffer (pH 7.4; composition mM: NaCl 130.0, KCl 3.7, NaHCO3 14.9, KH2PO4 1.2, MgSO4.7H2O 1.2, Glucose 11.0, HEPES 10.0, CaCl2.2H2O 1.6). Connective tissue was removed and aortas were cut into ring segments (4-5 mm in length). Each ring was placed in a 5 mL tissue bath filled with Krebs-HEPES buffer (37° C.) aerated with 95% O2 and 5% CO2 and was attached to a force transducer (Grass FT03), connected to a BIOPAC MP150 System for measurement of the isometric tension. Preparations were allowed to equilibrate for 1 h at a resting tension of 2 g for rabbit aortas and 1 g for rat aortas with changes of the buffer every 15 min. Then the rings were stimulated by exposure to 90 mM KCl (3 times) with intervening washings.
(§2) Rat aorta. After equilibration, rat aortas were precontracted with KCl (90 mM) and, when the contraction was stable, a cumulative concentration-response curve to acetylcholine (ACh, 0.01-100 μM) was added. After washout, the rings were precontracted again with KCl (90 mM). When a steady-state level of contraction was obtained, a cumulative concentration-response curve to the tested compounds (0.01-100 μM) was obtained.
(§3) Data analysis. Results are given as mean±SEM. Vascular responses are expressed as percentage relaxation and plotted vs concentration. The sensitivity of isolated aorta to different vasodilators is expressed as the concentration that elicited 50% of the maximal responses (EC50). Responses are quantified in terms of EC50 and Emax (maximal vasodilating effect) values, obtained from the concentration-response curve by nonlinear curve fitting, using GraphPad software.
Endothelial-dependent vasodilation (vascular response to acetylcholine, ACh) was assessed following 5-day treatment with Compound (6) (100 mg/kg) or 5-ISMN (30 mg/kg). A relaxant response to ACh indicated the presence of a functional endothelium. The vascular response was performed as described in Example 6.

[2] = tested on: isolated aortas from rats; assay: Ex vivo tolerance evaluation, vascular response of isolated rat aortas; assay type: cell-based; conditions: 5-day oral treatment; 5-ISMN 30 mg/kg, Compound (6) 100 mg/kg
Method: as §1, §2, §3
Tolerance to nitrate was further investigated assessing the vascular effects of Compound (6) following repeated treatment compared with 5-ISMN. The vascular response to the compound itself was assessed on isolated aortas from rats orally treated for 5 days with Compound (6) (100 mg/kg). The vascular response was performed as described in Example 6.
Vascular responses were performed 1 h (ISMN) or 3 h (Compound (6)) after the last administration, the concentrations of tested compound that elicited the 50% of the maximal responses (EC50) are shown in Table 4.

[3] = tested on: ocular normotensive New Zealand rabbits; assay: IOP lowering activity in ocular normotensive New Zealand rabbits; assay type: in vivo, New Zealand White rabbits
Method: Intraocular pressure (IOP) lowering activity in ocular normotensive New Zealand rabbits.
• compound (6) • timolol that is a drug commonly used for the treatment of glaucoma and ocular hypertension. • Isosorbide mononitrate (5-ISMN) that is a commonly used nitric oxide donor drug.
Timolol, dorzolamide and 5-ISMN were tested as reference compounds. Adults male New Zealand White rabbits weighting 1.8-2.0 Kg were used in the experiments.
IOP was measured using a pneumatonometer 30 CLASSIC™ before topical application (basal) and a different time point (30, 60, 120, 240 and 300 min) thereafter. Vehicle (5% cremophor-EL; 0.3% DMSO; 0.2 mg/ml BAK in PBS pH 6.0) or tested compounds dissolved in the vehicle were instilled as eye drops into the conjunctiva pocket. Eyes were randomly assigned to different treatment groups. One drop of 0.4% oxybuprocaine hydrochloride (Novesine, Sandoz) was instilled in each eye immediately before each set of pressure measurements.
The test results are reported in Table 7, the ocular hypotensive activity is expressed as IOP changes at 30, 60, 120 and 300 minutes after topical administration versus vehicle and versus IOP at basal.

[4] = tested on: lipidic peroxidation of membrane lipids in rat hepatocytes (hepatic microsomal membranes); assay: In vitro antioxidant activity (TBARS test); assay type: biochemical; conditions: Method A (ADP-FeCl3 and NADPH); inhibition of TBARS production after 30 min; read-out: Antioxidant activity IC50 μM (CL 95%)
Method: The antioxidant properties of compounds (6) (disclosed in example 1) and compound (23) (disclosed in example 19) and reference antioxidant compounds were assessed after NADPH-induced lipidic peroxidation of membrane lipids in rat hepatocytes using the detection of 2-thiobarbituric acid reactive substances (TBARS) by visible spectroscopy.
Hepatic microsomal membranes from male Wistar rats (200-250 g) were prepared by differential centrifugation (8000 g, 20 min; 120000 g, 1 h) in a HEPES/sucrose buffer (10 mM, 250 mM, pH 7.4) and stored at −80° C. Incubation was performed at 37° C. in a Tris-HCl/KCl (100 mM/150 mM, pH 7.4) containing microsomal membranes (2 mg prot/mL), sodium ascorbate (100 μM), and DMSO solutions of the tested compounds. Lipid peroxidation was initiated by adding ADP-FeCl3 and NADPH (Method A) or 2.5 μM FeSO4 (Method B) (as described by Boschi D. et al., J. Med. Chem. 2006, 49:2886-2897). Aliquots were taken from the incubation mixture at 5, 15, and 30 min and treated with trichloroacetic acid (TCA) 10% w/v. Lipid peroxidation was assessed by spectrophotometric (543 nm) determination of the TBARS consisting mainly of malondialdehyde (MDA). TBARS concentrations (expressed in nmol/mg protein) were obtained by interpolation with a MDA standard curve. The antioxidant activity of tested compounds was evaluated as the percent inhibition of TBARS production with respect to control samples, using the values obtained after 30 min of incubation. IC50 values were calculated by nonlinear regression analysis.

COC1=C(OC)C(=O)C(CCCCCCCCCCO[N+](=O)[O-])=C(C)C1=O [Compound (6), 10-(4,5-dimethoxy-2-methyl-3,6-dioxocyclohexa-1,4-dienyl)decyl nitrate]
effect on endothelial-dependent vasorelaxation (response to ACh) [1]: did not modify endothelial-dependent vasorelaxation
vascular sensitivity of aortas of treated animals to the compound itself versus vehicle/control arteries [2]: showed the same sensitivity
ΔΔ (mmHg), IOP change versus vehicle and versus IOP at basal ([3]; 30 min after topical administration): −1.8 ± 0.4 mmHg
ΔΔ (mmHg), IOP change versus vehicle and versus IOP at basal ([3]; 60 min after topical administration): −1.6 ± 0.3 mmHg
ΔΔ (mmHg), IOP change versus vehicle and versus IOP at basal ([3]; 120 min after topical administration): −1.3 ± 0.5 mmHg
ΔΔ (mmHg), IOP change versus vehicle and versus IOP at basal ([3]; 300 min after topical administration): −1.5 ± 0.4 mmHg
IC50 [4]: 2 µM
